Here are results for 20 molecules from patent publication US9890185B2, “Urea derivatives useful as kinase inhibitors” (Respivert Limited, priority 2013, dated 2018).

Usually IC50 stands for the concentration needed to halve the response being measured.

The target of assay [1] is GSK 3α (Homo sapiens (Human), UniProt P49840). Description: GSK 3α enzyme inhibition (FRET, Z-LYTE, Method 2). Format: biochemical. The conditions noted are these: read-out: IC50 Values for Enzyme Inhibition, GSK3α. As to the method: The enzyme inhibitory activities of compounds disclosed herein are determined by FRET using synthetic peptides labelled with both donor and acceptor fluorophores (Z-LYTE, Invitrogen Ltd., Paisley, UK).
Sequence of GSK 3α (P49840 whole entry): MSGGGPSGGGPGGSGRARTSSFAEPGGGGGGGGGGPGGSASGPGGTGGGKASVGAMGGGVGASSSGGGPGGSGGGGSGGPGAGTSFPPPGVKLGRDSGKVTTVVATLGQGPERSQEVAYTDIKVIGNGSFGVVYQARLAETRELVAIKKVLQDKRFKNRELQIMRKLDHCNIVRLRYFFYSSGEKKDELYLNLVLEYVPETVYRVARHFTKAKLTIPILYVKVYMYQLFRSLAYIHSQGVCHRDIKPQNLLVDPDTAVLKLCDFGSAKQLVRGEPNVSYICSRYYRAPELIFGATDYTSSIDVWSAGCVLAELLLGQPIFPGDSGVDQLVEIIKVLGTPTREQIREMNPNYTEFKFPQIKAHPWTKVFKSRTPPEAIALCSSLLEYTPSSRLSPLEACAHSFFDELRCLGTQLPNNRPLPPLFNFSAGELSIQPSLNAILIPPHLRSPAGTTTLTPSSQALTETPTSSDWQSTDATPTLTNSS
The following two assay variants can be used for determination of GSK 3α inhibition.
The inhibitory activities of compounds of the invention against the GSK 3α enzyme isoform (Invitrogen), are evaluated by determining the level of activation/phosphorylation of the target peptide. The GSK3-α protein (500 ng/mL, 2.5 μL) is mixed with the test compound (2.5 μL at either 4 μg/mL, 0.4 μg/mL, 0.04 μg/mL, or 0.004 μg/mL) for 2 hr at RT. The FRET peptide (8 μM, 2.5 μL), which is a phosphorylation target for GSK3α, and ATP (40 μM, 2.5 μL) are then added to the enzyme/compound mixture and the resulting mixture incubated for 1 hr. Development reagent (protease, 5 μL) is added for 1 hr prior to detection in a fluorescence microplate reader (Varioskan® Flash, ThermoFisher Scientific).
In all cases, the site-specific protease cleaves non-phosphorylated peptide only and eliminates the FRET signal. Phosphorylation levels of each reaction are calculated using the ratio of coumarin emission (donor) over fluorescein emission (acceptor), for which high ratios indicate high phosphorylation and low ratios indicate low phosphorylation levels. The percentage inhibition of each reaction is calculated relative to non-inhibited control and the 50% inhibitory concentration (IC50 value) is then calculated from the concentration-response curve.
This method follows the same steps as Method 1 above, but utilises a shorter period of mixing of the test compound (105 minutes instead of 2 hours) with the GSK3-α protein.

Assay [2] concerns PBMCs. Description: LPS-induced IL-8 release in PBMC cells (assay b). Format: cell-based, human. Conditions: Homo sapiens, PBMC; LPS-stimulated PBMCs; read-out: IC50 Values for Inhibition of Cytokine Release, PBMCs IL-8. As to the method: Peripheral blood mononuclear cells (PBMCs) from healthy subjects are separated from whole blood using a density gradient (Lymphoprep, Axis-Shield Healthcare). The PBMCs are seeded in 96 well plates and treated with compounds at the desired concentration for 2 hours before addition of 1 ng/mL LPS (Escherichia Coli 0111:B4 from Sigma Aldrich) for 24 hours under normal tissue culture conditions (37° C., 5% CO2). The supernatant is harvested for determination of IL-8 and TNFα concentrations by sandwich ELISA (Duo-set, R&D systems) and read on the fluorescence microplate reader (Varioskan® Flash, ThermoFisher Scientific). The concentration at 50% inhibition (IC50) of IL-8 and TNFα production is calculated from the dose response curve.

`COc1c(NC(=O)Nc2ccc(Oc3ccnc(Nc4ccccn4)n3)c3ccccc23)cc(C(C)(C)C)cc1P(C)(C)=O` [15(o), 1-(5-(tert-butyl)-3-(dimethylphosphoryl)-2-methoxyphenyl)-3-(4-((2-(pyridin-2-ylamino)pyrimidin-4-yl)oxy)naphthalen-1-yl)urea]: the IC50 in assay [1] stood at 5.8 µM; in assay [2], 0.0204 µM.
Regarding `COc1c(NC(=O)Nc2ccc(Oc3ccnc(Nc4ccccc4)n3)c3ccccc23)cc(C(C)(C)C)cc1C(=O)NCCN1CCOCC1` [15(p), 5-(tert-butyl)-2-methoxy-N-(2-morpholinoethyl)-3-(3-(4-((2-(phenylamino)pyrimidin-4-yl)oxy)naphthalen-1-yl)ureido)benzamide], the figures for the IC50 in assay [1] and in assay [2] were 1.95 µM and 0.0094 µM, respectively.
The like results for `COc1c(NC(=O)Nc2ccc(Oc3ccnc(Nc4cncnc4)n3)c3ccccc23)cc(C(C)(C)C)cc1P(C)(C)=O` [15(r), 1-(5-(tert-butyl)-3-(dimethylphosphoryl)-2-methoxyphenyl)-3-(4-((2-(pyrimidin-5-ylamino)pyrimidin-4-yl)oxy)naphthalen-1-yl)urea] were, in that order, 0.188 µM and 0.0048 µM.
For `COc1c(NC(=O)Nc2ccc(Oc3ccnc(Nc4cnn(C)c4)n3)c3ccccc23)cc(C(C)(C)C)cc1P(C)(C)=O` [15(s), 1-(5-(tert-butyl)-3-(dimethylphosphoryl)-2-methoxyphenyl)-3-(4-((2-((1-methyl-1H-pyrazol-4-yl)amino)pyrimidin-4-yl)oxy)naphthalen-1-yl)urea], in that order: 0.239 µM and 0.0014 µM.
As for `COc1c(NC(=O)Nc2ccc(Oc3ccnc(Nc4cccc(OS(C)(=O)=O)c4)n3)c3ccccc23)cc(C(C)(C)C)cc1P(C)(C)=O` [15(t), 3-((4-((4-(3-(5-(tert-butyl)-3-(dimethylphosphoryl)-2-methoxyphenyl)ureido)-naphthalen-1-yl)oxy)pyrimidin-24)amino)phenyl methanesulfonate], the values for the IC50 in assay [1] and in assay [2] were 0.283 µM and 0.0005 µM, respectively.
The like results for `COc1c(NC(=O)Nc2ccc(Oc3ccnc(Nc4ccccc4)n3)c3ccccc23)cc(C(C)(C)C)cc1C(=O)NCCN1CCCC1` [15(u), 5-(tert-butyl)-2-methoxy-3-(3-(4-((2-(phenylamino)pyrimidin-4-yl)oxy)naphthalen-1-yl)ureido)-N-(2-(pyrrolidin-1-yl)ethyl)benzamide] were, in that order, 3.06 µM and 0.0079 µM.
The like results for `COc1c(NC(=O)Nc2ccc(Oc3ccnc(Nc4ccc5c(c4)NC(=O)C5)n3)c3ccccc23)cc(C(C)(C)C)cc1P(C)(C)=O` [15(v), 1-(5-(tert-butyl)-3-(dimethylphosphoryl)-2-methoxyphenyl)-3-(4-((2-((2-oxoindolin-6-yl)amino)pyrimidin-4-yl)oxy)naphthalen-1-yl)urea] were, in that order, 0.302 µM and 0.0028 µM.
For `COc1c(NC(=O)Nc2ccc(Oc3ccnc(Nc4ccc5c(c4)OCCO5)n3)c3ccccc23)cc(C(C)(C)C)cc1P(C)(C)=O` [15(w), 1-(5-(tert-butyl)-3-(dimethylphosphoryl)-2-methoxyphenyl)-3-(4-((2-((2,3-dihydrobenzo[b][1,4]dioxin-6-yl)amino)pyrimidin-4-yl)oxy)naphthalen-1-yl)urea], in that order: 1.67 µM and 0.0105 µM.
Consider `COc1c(NC(=O)Nc2ccc(Oc3ccnc(Nc4ccc5c(c4)CS(=O)(=O)C5)n3)c3ccccc23)cc(C(C)(C)C)cc1P(C)(C)=O` [15(y), 1-(5-(tert-butyl)-3-(dimethylphosphoryl)-2-methoxyphenyl)-3-(4-((2-((2,2-dioxido-1,3-dihydrobenzo[c]thiophen-5-yl)amino)pyrimidin-4-yl)oxy)naphthalen-1-yl)urea], for which the IC50 in assay [1] was determined as 0.194 µM; in assay [2], 0.0009 µM.
Turning to `COc1c(NC(=O)Nc2ccc(Oc3ccnc(Nc4cnoc4)n3)c3ccccc23)cc(C(C)(C)C)cc1P(C)(C)=O` [15(z), 1-(5-(tert-butyl)-3-(dimethylphosphoryl)-2-methoxyphenyl)-3-(4-((2-(isoxazol-4-ylamino)pyrimidin-4-yl)oxy)naphthalen-1-yl)urea], the IC50 came to 1.5 µM in assay [1] and 0.0361 µM in assay [2].
`COc1c(CN(C)C(C)=O)cc(C(C)(C)C)cc1NC(=O)Nc1ccc(Oc2ccnc(Nc3ccccc3)c2)c2ccccc12` [38(aa), N-(5-(tert-Butyl)-2-methoxy-3-(3-(4-((2-(phenylamino)pyridin-4-yl)oxy)naphthalen-1-yl)ureido)benzyl)-N-methylacetamide]: the IC50 in assay [1] was determined as 8.29 µM; in assay [2], 0.0025 µM.
Regarding `COc1cc(Nc2cc(Oc3ccc(NC(=O)Nc4cc(C(C)(C)C)cc(CNC(C)=O)c4OC)c4ccccc34)ccn2)cc(C(N)=O)c1` [38(ac), 3-((4-((4-(3-(3-(Acetamidomethyl)-5-(tert-butyl)-2-methoxyphenyl)ureido)naphthalen-1-yl)oxy)pyridin-2-yl)amino)-5-methoxybenzamide], the IC50 in assay [1] came out at 0.834 µM; in assay [2], 0.0004 µM.
The like results for `COc1cc(Nc2cc(Oc3ccc(NC(=O)Nc4cc(C(C)(C)C)cc(CC(N)=O)c4OC)c4ccccc34)ccn2)cc(P(C)(C)=O)c1` [38(ae), 2-(5-(tert-Butyl)-3-(3-(4-((2-((3-(dimethylphosphoryl)-5-methoxyphenyl)amino)pyridin-4-yl)oxy)naphthalen-1-yl)ureido)-2-methoxyphenyl)acetamide] were, in that order, 0.8 µM and 0.0012 µM.
For `COCCOCCOCCNC(=O)c1cc(Nc2cc(Oc3ccc(NC(=O)Nc4cc(C(C)(C)C)cc(CC(N)=O)c4OC)c(Cl)c3Cl)ccn2)cc(OC)c1` [38(ag), 3-((4-(4-(3-(3-(2-Amino-2-oxoethyl)-5-(tert-butyl)-2-methoxyphenyl)ureido)-2,3-dichlorophenoxy)pyridin-2-yl)amino)-5-methoxy-N-(2-(2-(2-methoxyethoxy)ethoxy)ethyl)benzamide], in that order: 0.37 µM and 0.0006 µM.
For `COc1cc(Nc2nccc(Oc3ccc(NC(=O)Nc4cc(C(C)(C)C)cc(C(=O)NCCN5CCOCC5)c4OC)c4ccccc34)n2)cc(C(=O)NCCN2CCOCC2)c1` [38(ak), 5-(tert-Butyl)-2-methoxy-3-(3-(4-((2-((3-methoxy-5-((2-morpholinoethyl)carbamoyl)-phenyl)amino)pyrimidin-4-yl)oxy)naphthalen-1-yl)ureido)-N-(2-morpholinoethyl)benzamide], in that order: 0.461 µM and 0.0012 µM.
As to `COc1cc(Nc2cc(Oc3ccc(NC(=O)Nc4cc(C(C)(C)C)cc(P(C)(C)=O)c4OC)c4ccccc34)ccn2)cc(C(=O)NCCN2CC[S+]([O-])CC2)c1` [38(am), 3-((4-((4-(3-(5-(tert-Butyl)-3-(dimethylphosphoryl)-2-methoxyphenyl)ureido)naphthalen-1-yl)oxy)pyridin-2-yl)amino)-5-methoxy-N-(2-(1-oxidothiomorpholino)ethyl)benzamide], the IC50 in assay [1] is 1.5 µM; in assay [2], 0.0062 µM.
In the case of `COc1cc(Nc2cc(Oc3ccc(NC(=O)Nc4cc(C(C)(C)C)cc(S(C)(=O)=O)c4OC)c4ccccc34)ccn2)ccc1C(=O)NCCN1CCOCC1` [38(ap), 4-((4-((4-(3-(5-(tert-Butyl)-2-methoxy-3-(methylsulfonyl)phenyl)ureido)naphthalen-1-yl)oxy)pyridin-2-yl)amino)-2-methoxy-N-(2-morpholinoethyl)benzamide], the results for the IC50 in assay [1] and in assay [2] were greater than 5.8 µM and 0.0045 µM, respectively.
As for `COc1c(NC(=O)Nc2ccc(Oc3ccnc(Nc4ccccc4)c3)c3ccccc23)cc(C(C)(C)C)cc1[S+](C)[O-]` (stereo not shown) [38(b1), 1-(5-(tert-Butyl)-2-methoxy-3-(methylsulfinyl)phenyl)-3-(4-((2-(phenylamino)pyridin-4-yl)oxy)naphthalen-1-yl)urea], the IC50 in assay [1] was greater than 9.66 µM; in assay [2], 0.0083 µM.
For `COc1cccc(Nc2cc(Oc3ccc(NC(=O)Nc4cc(C(C)(C)C)cc(CC(=O)N(C)C)c4OC)c4ccccc34)ccn2)c1` [38(i), 2-(5-(tert-Butyl)-2-methoxy-3-(3-(4-((2-((3-methoxyphenyl)amino)pyridin-4-yl)oxy)naphthalen-1-yl)ureido)phenyl)-N,N-dimethylacetamide], in that order: greater than 15.4 µM and 0.0114 µM.
For `COc1cccc(Nc2cc(Oc3ccc(NC(=O)Nc4cc(C(C)(C)C)cc(CC(=O)N5CCOCC5)c4OC)c4ccccc34)ccn2)c1` [38(j), 1-(5-(tert-Butyl)-2-methoxy-3-(2-morpholino-2-oxoethyl)phenyl)-3-(4-((2-((3-methoxyphenyl)amino)pyridin-4-yl)oxy)naphthalen-1-yl)urea], in that order: greater than 14.5 µM and 0.0125 µM.
